According to ChEMBL document CHEMBL1201862, “PubChem BioAssay data set” (2004):
Active and inactive are the calls of the source.

Tests used:
[1] = potency of ADAM10 substrate cleavage blockers – biochemical, QFRET, dose response (AID 743254);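 further: ADAM10 enzyme with the DM2 quenched FRET peptide as substrate; EDANS fluorescence gain as the protease cuts the substrate; inhibitor potency against ADAM10 proteolytic activity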
[2] = target: Disintegrin and metalloproteinase domain-containing protein 17 (Homo sapiens, UniProt P78536); assay: inhibition of ADAM17 substrate cleavage – biochemical, quenched FRET substrate, counter-screen for ADAM10 exosite inhibitor project, dose response (AID 743253)
HeLa = assay: viability loss in HeLa cells – cell-based, ATP luminescence, cherry-pick samples, cytotoxicity control, dose response (AID 687004); type: functional; details: Homo sapiens
HEK293 = assay: viability loss in HEK293T cells – cell-based, ATP luminescence, cherry-pick samples, cytotoxicity control, dose response (AID 687005); type: functional; details: Homo sapiens;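 further: cells exposed to compound for 48 hours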
[3] = HEK293 Cytotoxicity Assay Measured in Cell-Based System Using Plate Reader - 7071-01_Inhibitor_Dose_CherryPick_Activity_Set2.; type: functional
cells [4] = assay: cells
Caspase-3 = target: T1, Caspase-3 (Homo sapiens, UniProt P42574); type: functional;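 further: Dose-response selectivity test against caspase-3 for candidate inhibitors of sentrin-specific proteases (SENPs)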
T1 sequence (P42574 whole entry): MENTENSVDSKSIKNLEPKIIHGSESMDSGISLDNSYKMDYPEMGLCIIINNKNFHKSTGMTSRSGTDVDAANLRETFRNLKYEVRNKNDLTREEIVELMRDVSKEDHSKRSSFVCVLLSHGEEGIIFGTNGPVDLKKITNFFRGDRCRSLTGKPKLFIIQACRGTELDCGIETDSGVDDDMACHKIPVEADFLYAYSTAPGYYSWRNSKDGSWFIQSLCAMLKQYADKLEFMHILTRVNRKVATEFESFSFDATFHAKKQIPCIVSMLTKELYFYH

[5] = target: T2, Sentrin-specific protease 7 (Homo sapiens, UniProt Q9BQF6); type: functional;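 further: Luminescence-based dose-response confirmation of ultra-high-throughput screening hits, measuring inhibition of SENP7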
T2 sequence (Q9BQF6 whole entry): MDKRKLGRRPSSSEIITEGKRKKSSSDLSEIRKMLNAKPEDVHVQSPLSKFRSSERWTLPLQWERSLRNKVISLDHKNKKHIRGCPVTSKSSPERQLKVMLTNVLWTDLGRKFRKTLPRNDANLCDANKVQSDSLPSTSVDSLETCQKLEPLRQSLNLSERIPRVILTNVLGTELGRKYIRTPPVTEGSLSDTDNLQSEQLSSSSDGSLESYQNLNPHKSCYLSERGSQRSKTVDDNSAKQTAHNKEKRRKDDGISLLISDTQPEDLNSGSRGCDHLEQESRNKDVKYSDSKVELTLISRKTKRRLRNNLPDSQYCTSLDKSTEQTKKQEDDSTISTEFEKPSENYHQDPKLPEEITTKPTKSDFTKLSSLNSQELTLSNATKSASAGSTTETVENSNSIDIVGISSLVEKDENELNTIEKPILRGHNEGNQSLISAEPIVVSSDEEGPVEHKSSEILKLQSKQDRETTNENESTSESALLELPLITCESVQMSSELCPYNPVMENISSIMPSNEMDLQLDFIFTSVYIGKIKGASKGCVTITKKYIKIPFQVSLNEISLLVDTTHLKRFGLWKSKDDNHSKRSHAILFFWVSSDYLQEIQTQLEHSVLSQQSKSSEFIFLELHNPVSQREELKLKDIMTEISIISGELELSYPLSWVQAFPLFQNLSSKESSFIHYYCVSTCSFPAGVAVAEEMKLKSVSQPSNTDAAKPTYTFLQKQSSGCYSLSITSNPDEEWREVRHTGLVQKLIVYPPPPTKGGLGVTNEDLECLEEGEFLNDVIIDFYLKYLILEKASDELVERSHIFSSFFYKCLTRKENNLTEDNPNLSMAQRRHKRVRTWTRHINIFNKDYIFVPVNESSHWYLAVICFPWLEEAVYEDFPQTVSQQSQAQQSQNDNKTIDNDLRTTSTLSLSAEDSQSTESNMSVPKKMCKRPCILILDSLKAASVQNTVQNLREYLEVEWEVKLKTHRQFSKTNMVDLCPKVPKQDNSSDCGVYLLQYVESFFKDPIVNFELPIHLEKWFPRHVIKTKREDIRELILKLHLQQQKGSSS

[6] = target: T3, Oxysterols receptor LXR-beta (Homo sapiens, UniProt P55055); type: functional, cell-based
T3 sequence (P55055 whole entry): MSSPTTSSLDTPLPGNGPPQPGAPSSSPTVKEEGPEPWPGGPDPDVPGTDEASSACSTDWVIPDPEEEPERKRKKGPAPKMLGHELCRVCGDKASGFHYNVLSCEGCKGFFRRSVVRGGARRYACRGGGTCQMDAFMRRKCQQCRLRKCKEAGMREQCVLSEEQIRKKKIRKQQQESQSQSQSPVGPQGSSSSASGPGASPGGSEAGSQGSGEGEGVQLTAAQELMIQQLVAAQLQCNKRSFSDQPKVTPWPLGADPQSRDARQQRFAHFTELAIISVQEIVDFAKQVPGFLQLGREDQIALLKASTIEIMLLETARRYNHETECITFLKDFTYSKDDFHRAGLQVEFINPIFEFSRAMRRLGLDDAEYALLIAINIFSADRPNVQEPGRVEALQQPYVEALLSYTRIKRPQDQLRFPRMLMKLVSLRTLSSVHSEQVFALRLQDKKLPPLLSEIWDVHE

[7] = target: T3, Oxysterols receptor LXR-beta; assay: LXR agonists, Gal4 luciferase reporter, dose response, counter-screen for ssDAF-12 agonist project, cell-based, luminescence, HEK293, S. stercoralis campaign (AID 720737); type: functional; details: read-out: IC50 (the source's name)
[8] = target: T4, Endoribonuclease toxin MazF (Escherichia coli K-12, UniProt P0AE70); assay: substrate-only fluorescence increase artefacts – biochemical, single-stranded RNase substrate, counter-screen for MazEF activator project, dose response (AID 588502); type: functional
T4 sequence (P0AE70 whole entry): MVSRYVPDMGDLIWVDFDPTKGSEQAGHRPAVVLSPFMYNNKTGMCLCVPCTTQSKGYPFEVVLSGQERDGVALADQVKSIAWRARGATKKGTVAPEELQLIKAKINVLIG

[9] = target: T5, Sentrin-specific protease 6 (Homo sapiens, UniProt Q9GZR1); type: functional;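 further: Luminescence-based dose-response confirmatory assay of SENP6 inhibition, following up an ultra-high-throughput screen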
T5 sequence (Q9GZR1 whole entry): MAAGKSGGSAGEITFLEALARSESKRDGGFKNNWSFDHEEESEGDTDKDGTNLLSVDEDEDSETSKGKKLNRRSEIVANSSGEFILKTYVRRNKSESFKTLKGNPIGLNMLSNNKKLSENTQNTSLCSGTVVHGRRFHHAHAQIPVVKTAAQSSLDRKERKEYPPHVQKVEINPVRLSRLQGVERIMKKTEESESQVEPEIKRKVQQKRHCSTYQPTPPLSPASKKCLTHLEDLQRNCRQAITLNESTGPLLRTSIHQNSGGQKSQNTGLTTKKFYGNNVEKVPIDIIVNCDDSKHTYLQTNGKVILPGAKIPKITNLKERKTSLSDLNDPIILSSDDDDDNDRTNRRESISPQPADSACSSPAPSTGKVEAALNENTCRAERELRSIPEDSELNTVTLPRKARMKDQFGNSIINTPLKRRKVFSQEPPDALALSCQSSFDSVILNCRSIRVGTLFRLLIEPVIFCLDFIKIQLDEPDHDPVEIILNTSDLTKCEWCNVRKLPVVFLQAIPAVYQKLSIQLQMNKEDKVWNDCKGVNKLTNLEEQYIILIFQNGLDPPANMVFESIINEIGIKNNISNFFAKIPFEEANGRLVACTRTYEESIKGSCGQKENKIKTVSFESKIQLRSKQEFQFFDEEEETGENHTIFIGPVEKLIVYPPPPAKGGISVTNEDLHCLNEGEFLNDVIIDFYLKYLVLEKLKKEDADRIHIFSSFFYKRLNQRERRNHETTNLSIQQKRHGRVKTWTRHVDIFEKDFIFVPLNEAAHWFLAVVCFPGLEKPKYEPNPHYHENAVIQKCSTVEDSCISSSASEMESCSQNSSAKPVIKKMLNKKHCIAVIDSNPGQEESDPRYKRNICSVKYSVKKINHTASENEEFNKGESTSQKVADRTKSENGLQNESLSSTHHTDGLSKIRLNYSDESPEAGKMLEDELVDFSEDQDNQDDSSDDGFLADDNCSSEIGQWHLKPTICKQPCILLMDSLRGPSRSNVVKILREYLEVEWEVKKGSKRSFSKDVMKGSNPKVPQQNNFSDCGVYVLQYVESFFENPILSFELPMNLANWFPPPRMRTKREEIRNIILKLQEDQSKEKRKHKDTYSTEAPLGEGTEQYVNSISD

[10] = Luminescence-based cell-based high throughput dose response assay to identify activators of the DAF-12 from the parasite S. stercoralis (ssDAF-12).; type: functional
[11] = target: T6, Sentrin-specific protease 8 (Homo sapiens, UniProt Q96LD8); type: functional;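 further: luminescence read-out of SENP8 inhibition, dose-response confirmation following an ultra-high-throughput screen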
T6 sequence (Q96LD8 whole entry): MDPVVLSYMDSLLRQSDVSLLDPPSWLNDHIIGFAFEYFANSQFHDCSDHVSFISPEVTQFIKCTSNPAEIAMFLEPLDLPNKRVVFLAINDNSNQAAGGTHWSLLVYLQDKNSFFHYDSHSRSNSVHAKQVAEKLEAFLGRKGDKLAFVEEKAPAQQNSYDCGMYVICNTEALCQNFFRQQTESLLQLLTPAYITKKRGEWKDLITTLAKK

[12] = target: T3, Oxysterols receptor LXR-beta; type: functional, cell-based; remark: listed apart in the source
[13] = target: T4, Endoribonuclease toxin MazF; assay: activation of MazEF endoribonuclease cleavage – biochemical, fluorescence, single-stranded RNA substrate, uHTS hits, dose response (AID 588481); type: functional
cells [14] = assay: cells; remark: listed apart in the source
[15] = target: T7, Zinc finger protein mex-5 (Caenorhabditis elegans, UniProt Q9XUB2); assay: potency of MEX-5 RNA-binding blockers – biochemical, C. elegans, fluorescence polarization, dose response (AID 1960)
T7 sequence (Q9XUB2 whole entry): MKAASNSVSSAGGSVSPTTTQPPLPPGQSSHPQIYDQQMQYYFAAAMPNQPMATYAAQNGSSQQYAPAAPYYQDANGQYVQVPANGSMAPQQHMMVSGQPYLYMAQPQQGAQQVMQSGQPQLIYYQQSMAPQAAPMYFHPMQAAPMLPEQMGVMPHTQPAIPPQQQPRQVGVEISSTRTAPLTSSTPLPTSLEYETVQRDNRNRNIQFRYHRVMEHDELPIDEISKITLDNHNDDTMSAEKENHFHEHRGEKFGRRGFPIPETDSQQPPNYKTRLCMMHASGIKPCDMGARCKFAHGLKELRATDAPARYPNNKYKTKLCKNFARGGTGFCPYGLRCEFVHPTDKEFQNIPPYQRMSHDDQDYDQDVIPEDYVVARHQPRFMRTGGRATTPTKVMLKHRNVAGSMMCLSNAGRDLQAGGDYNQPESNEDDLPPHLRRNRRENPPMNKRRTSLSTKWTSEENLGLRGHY

[16] = target: T8, RNA-binding protein pos-1 (Caenorhabditis elegans, UniProt G5EF15); assay: disruptors of C. elegans POS-1 RNA interaction – biochemical, fluorescence polarization, dose response (AID 1964);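 further: purified POS-1 fused to maltose binding protein made in E. coli; potency of compounds blocking POS-1 binding to fluorescent RNA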
T8 sequence (G5EF15 whole entry): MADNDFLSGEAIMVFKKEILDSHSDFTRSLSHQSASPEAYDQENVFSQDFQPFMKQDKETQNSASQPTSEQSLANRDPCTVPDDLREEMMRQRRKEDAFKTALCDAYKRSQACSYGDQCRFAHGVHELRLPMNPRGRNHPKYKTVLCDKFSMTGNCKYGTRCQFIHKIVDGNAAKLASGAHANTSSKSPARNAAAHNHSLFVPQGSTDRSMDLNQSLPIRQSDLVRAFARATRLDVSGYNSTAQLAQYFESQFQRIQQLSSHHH

Sequence of Disintegrin and metalloproteinase domain-containing protein 17 (P78536 whole entry, the tested form may be a part): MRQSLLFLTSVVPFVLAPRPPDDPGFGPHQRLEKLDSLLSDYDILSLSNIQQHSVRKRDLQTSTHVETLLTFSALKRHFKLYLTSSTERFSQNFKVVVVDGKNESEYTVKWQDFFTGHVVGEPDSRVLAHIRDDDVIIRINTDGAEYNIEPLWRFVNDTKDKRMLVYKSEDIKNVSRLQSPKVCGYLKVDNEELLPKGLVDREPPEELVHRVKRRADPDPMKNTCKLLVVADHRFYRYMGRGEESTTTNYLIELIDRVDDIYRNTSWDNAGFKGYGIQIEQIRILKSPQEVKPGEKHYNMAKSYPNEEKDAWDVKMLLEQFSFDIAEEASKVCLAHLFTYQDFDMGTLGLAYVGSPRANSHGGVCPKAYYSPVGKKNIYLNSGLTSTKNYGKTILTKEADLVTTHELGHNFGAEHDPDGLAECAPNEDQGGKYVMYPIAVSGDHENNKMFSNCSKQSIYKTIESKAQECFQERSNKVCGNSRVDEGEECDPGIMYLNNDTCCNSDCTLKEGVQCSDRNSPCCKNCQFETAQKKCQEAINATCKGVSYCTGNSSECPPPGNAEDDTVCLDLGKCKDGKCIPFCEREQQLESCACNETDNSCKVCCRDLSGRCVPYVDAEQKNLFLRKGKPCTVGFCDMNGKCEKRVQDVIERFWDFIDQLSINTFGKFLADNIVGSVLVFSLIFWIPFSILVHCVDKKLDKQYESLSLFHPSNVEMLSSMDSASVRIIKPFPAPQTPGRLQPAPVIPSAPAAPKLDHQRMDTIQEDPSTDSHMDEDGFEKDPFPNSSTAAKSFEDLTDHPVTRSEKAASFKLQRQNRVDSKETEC

SMILES: COc1ccccc1NS(=O)(=O)c1cc(NC(=O)c2cc(F)c(F)c(F)c2F)ccc1N1CCOCC1
- IC50 [1]: > 69.5 µM (inactive)
- IC50 [2]: > 69.5 µM (inactive)

SMILES: C[C@@H]1CN([C@H](C)CO)C(=O)c2cccc(NC(=O)Nc3ccccc3)c2O[C@@H]1CN(C)Cc1ccc(Cl)c(Cl)c1
- AC50 (HeLa): 45.7 µM (active)
- AC50 (HEK293): 9.06 µM (active)
- AC50 [3]: 9.06 µM (active)

SMILES: OC(c1ccccc1)(c1nc(-c2ccc3c(c2)OCO3)cs1)C(F)(F)F (stereo not drawn)
- IC50 [1]: > 7.73 µM (active)
- IC50 [2]: > 69.5 µM (inactive)

SMILES: C(=N\NC1=Nc2cccc3cccc1c23)/c1ccccc1
- EC50 (cells [4]): > 67.5 µM (inactive)
- IC50 (Caspase-3): 30.1 µM (active)
- IC50 [5]: 5.42 µM (active)
- EC50 [6]: > 67.5 µM (inactive)
- EC50 [7]: > 67.5 µM (inactive)
- EC50 [8]: > 99 µM (inactive)
- IC50 [9]: > 100 µM (inactive)
- IC50 [10]: > 67.5 µM (inactive)
- IC50 [11]: > 100 µM (inactive)
- EC50 [12]: > 67.5 µM (inactive)
- EC50 [13]: > 99 µM (inactive)

SMILES: CCN(CC)c1ccc2cc(C#N)c(=O)oc2c1
- AC50 (cells [14]): 0.575 µM (active)
- EC50 [15]: 63 µM (inconclusive)
- EC50 [16]: 76.3 µM (active)

SMILES: Cc1ccc(C(=O)NC(=S)Nc2ccc(N3CCOCC3)cc2)cc1
- AC50 (HEK293): 20.1 µM (active)
- AC50 [3]: 20.1 µM (active)
